Source: ChEMBL document CHEMBL1153898, “Indolyl-pyrrolone as a new scaffold for Pim1 inhibitors” (Bioorg Med Chem Lett, 2009)
Active and inactive are the calls of the source. No cut-off for these calls is given here.

Key:
[1] = target: T1, Serine/threonine-protein kinase pim-1 (Homo sapiens, UniProt P11309); assay: Inhibition of human recombinant Pim1 expressed in insect cells at 100 uM
Target sequence in this assay (P11309 whole entry, looked up): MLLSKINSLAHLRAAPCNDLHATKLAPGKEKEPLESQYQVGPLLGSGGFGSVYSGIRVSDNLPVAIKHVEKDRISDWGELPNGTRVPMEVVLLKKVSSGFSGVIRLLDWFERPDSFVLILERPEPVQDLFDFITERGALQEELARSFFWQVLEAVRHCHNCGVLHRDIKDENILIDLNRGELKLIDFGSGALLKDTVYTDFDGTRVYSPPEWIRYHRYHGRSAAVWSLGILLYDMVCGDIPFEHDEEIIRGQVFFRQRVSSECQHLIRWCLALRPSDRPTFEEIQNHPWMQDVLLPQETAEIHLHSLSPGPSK

[2] = target: T1, Serine/threonine-protein kinase pim-1; assay: Inhibition of recombinant Pim1 with increasing concentration of ATP
Target sequence in this assay (P11309 whole entry, looked up): as above

[3] = target: T1, Serine/threonine-protein kinase pim-1; assay: Inhibition of recombinant Pim1 by scintillation counter
Target sequence in this assay (P11309 whole entry, looked up): as above

[4] = target: T1, Serine/threonine-protein kinase pim-1; assay: Inhibition of human recombinant Pim1 expressed in insect cells by HTRF
Target sequence in this assay (P11309 whole entry): as the sequence (P11309 whole entry, looked up) above

LNCaP [5] = assay: Antiproliferative activity against human LNCAP cells assessed as reduction in cell number after 72 hrs; format: functional, cell-based
PC-3 [6] = assay: Cell cycle arrest in human PC3 cells assessed as accumulation at S phase at 10 uM after 72 hrs by cytofluorimetric assay; format: functional
PC-3 [7] = assay: Antiproliferative activity against human PC3 cells assessed as reduction in cell number after 72 hrs; format: functional, cell-based; conditions: PC-3, 72 h
LNCaP [8] = assay: Cell cycle arrest in human LNCAP cells assessed as accumulation at S phase at 10 uM after 72 hrs by cytofluorimetric assay; format: functional
PC-3 [9] = assay: Cell cycle arrest in human PC3 cells assessed as accumulation at G2 phase at 10 uM after 72 hrs by cytofluorimetric assay; format: functional
LNCaP [10] = assay: Cell cycle arrest in human LNCAP cells assessed as accumulation at G1 phase at 10 uM after 72 hrs by cytofluorimetric assay; format: functional
LNCaP [11] = assay: Cell cycle arrest in human LNCAP cells assessed as accumulation at G2 phase at 10 uM after 72 hrs by cytofluorimetric assay; format: functional
PC-3 [12] = assay: Cell cycle arrest in human PC3 cells assessed as accumulation at G1 phase at 10 uM after 72 hrs by cytofluorimetric assay; format: functional

Structure (SMILES)	inhibition [1] [%]	Activity [2]	ID50 [3] [µM]	Ki [4] [µM]	also measured
COC(=O)c1ccc(C2C(C(C)=O)=C(O)C(=O)N2CCc2c[nH]c3ccccc23)cc1 (stereo unspecified)	57	Active	13	–	–
CC(=O)C1=C(O)C(=O)N(CCc2c[nH]c3ccccc23)C1c1ccc(C)cc1 (stereo unspecified)	54	Active	10	–	–
CC(=O)C1=C(O)C(=O)N(CCc2c[nH]c3ccccc23)C1c1ccc(O)cc1 (stereo unspecified)	92	Active	5.2	2.2	–
COc1cc(C2C(C(C)=O)=C(O)C(=O)N2CCc2c[nH]c3ccccc23)ccc1O (stereo unspecified)	90	Active	9.5	4.5	–
CN(C)CCCn1cc(C2=C(c3cn(C)c4ccccc34)C(=O)NC2=O)c2ccccc21	–	–	–	–	IC50 [4]: 150 nM
CN1C2C=C(N(CCc3c[nH]c4ccccc34)C(=O)c3ccc(Cl)cc3)CCC1CC2 (stereo unspecified)	30	–	–	–	IC50 [4]: 2100 nM
CCc1ccc(C2C(C(C)=O)=C(O)C(=O)N2CCc2c[nH]c3ccccc23)cc1 (stereo unspecified)	79	Active	4.5	2.1	IC50 (LNCaP [5]): 10.6 µM; Activity (PC-3 [6]): 20.81%; IC50 (PC-3 [7]): 10.1 µM; Activity (LNCaP [8]): 34.92%; Activity (PC-3 [9]): 14.94%; Activity (LNCaP [10]): 39.47%; Activity (LNCaP [11]): 25.61%; Activity (PC-3 [12]): 64.24%
C/C(=C/c1sc2ccccc2[n+]1CCO)C/C=C1/Sc2ccccc2N1CCO	-4	–	–	–	–
CC(=O)Nc1ccc(-c2csc(-c3c[nH]c4ccccc34)n2)cc1	1	–	–	–	–
CC(Cc1ccccc1)NC(=O)C(c1ccc(N)cc1)c1ccc(N)cc1 (stereo unspecified)	-7	–	–	–	–
O/N=C/c1ccccc1OCC(O)Cn1c2ccccc2c2ccccc21 (stereo unspecified)	75	–	–	–	IC50 [4]: 16000 nM
CCOc1ccc(C2C(C(C)=O)=C(O)C(=O)N2CCc2c[nH]c3ccccc23)cc1 (stereo unspecified)	71	Active	12	4.2	–
CC(=O)C1=C(O)C(=O)N(CCc2c[nH]c3ccccc23)C1c1cccc(O)c1 (stereo unspecified)	84	Active	19	–	–
